In patent US20070293539A1, “Methods for the treatment of synucleinopathies” (priority 2004, published 2007):
“Also recorded” adds a separate entry of the source.

Tests used:
α-synuclein [1] = experiment: α-synuclein accumulation in SH-SY5Y cells infected with α-synuclein-expressing adenovirus, Western blotting normalized against actin; assay type: cell-based
Method: (§1) Viral Infection: Viral infection and MTT assay in SH-SY5Y cells: The viruses were amplified and purified according to the published procedure. SH-SY5Y cells were grown on 100 mm petri-dishes and induced with 100 nM RA for 3-5 days before the virus infection with M.I.O at 75. Viruses were diluted with DPBS to desired M.I.O. After four hours of incubation, 10 ml growth medium was added. On the second day, cells were splitted into 96-well plates and treated with compounds for next 48 hours. The growth medium in each well was replaced with growth medium with 5 ug/ml MTT. Medium was removed after three hours incubation, and 200 ul isopropyl (0.04N HCl) was added into each well. The signal was read at 570 nm.
Western Blotting: Following transfer of SDS gels onto NC membrane, all membranes were blocked with 5% non-fat milk in TBST (50 mM Tris-HCl pH7.4, 150 mM NaCl, 0.1% Tween 20), and incubated with primary antibody overnight with 1% BSA in TBST, washed three times with TBST, and incubated with horseradish peroxidase-conjugated secondary antibody for 1 hour (Promega). Bound antibodies were detected using enhanced chemiluminascence (NEM).
Since α-synuclein neurotoxicity is dose-dependent, it follows that accumulation of α-synuclein, caused by UCH-L1 farnesylation, should promote its toxicity. […] (F) Cell viability was assessed by the amount of metabolic activity using MTT assay. […]

UCH-L1 [2] = experiment: total amount and turnover of UCH-L1 in SH-SY5Y cells (pulse-chase experiment not shown); assay type: cell-based
UCH-L1 [3] = experiment: 2D electrophoresis and Western blotting of membrane-bound and cytosolic UCH-L1 in SH-SY5Y cells; assay type: cell-based; details: compared to cells treated with DMSO
Method: 2D electrophoresis: For the isolation of total cellular protein, cultured SH-SY5Y cells maintained as described above were rinsed with ice-cold PBS. Cells were lysed in 1 ml dSDS buffer (50 mM Tris-HCl, pH 8.0 0.1% SDS) supplemented with protease inhibitor cocktail. Lysates were boiled for 3 min, and were treated with Dnase and Rnase as described. Lysates were precipitated with ice-cold acetone for at least 2 hours, and pellets were resuspended in 2D sample buffer (8M urea, 0.5% CHAPS, 0.2% DTT, 0.5% IPG buffer, 0.002% bromophenol blue). 2D electrophoresis was carried out according to manufacture's protocol (Amersham Life Science). 7 cm pH 4-7 strips were used. For SH-SY5Y membrane fraction, culture SH-SY5Y cells were rinsed with cold PBS and harvested with lysis buffer (50 mM Tris-HCl, pH 8.0, 1 mM ZnAc2, 250 mM sucrose). Lysate was passed through 25G needles for several times and spun at 1000 g for 5 min. […]
(§2) Western Blotting: Following transfer of SDS gels onto NC membrane, all membranes were blocked with 5% non-fat milk in TBST (50 mM Tris-HCl pH7.4, 150 mM NaCl, 0.1% Tween 20), and incubated with primary antibody overnight with 1% BSA in TBST, washed three times with TBST, and incubated with horseradish peroxidase-conjugated secondary antibody for 1 hour (Promega). Bound antibodies were detected using enhanced chemiluminascence (NEM). […]

[4] = system: SH-SY5Y cells infected by α-synuclein-expressing adenovirus; experiment: α-synuclein toxicity in SH-SY5Y cells infected by α-synuclein-expressing adenovirus (Trypan blue viable cell counting, MTT assay); assay type: cell-based; details: SH-SY5Y cells overexpressing α-synuclein via adenoviral vector, compared to DMSO
Method: as §1
Viable cell counting: At stated time poins, SH-SY5Y cells were trypsinized with 100 ul trypsin-EDTA for 1 minute and neutralized with 400 ul growth medium. Cell suspension was made up by mixing 0.2 ml of cells in growth medium, 0.3 ml of HBSS and 0.5 ml of 0.4% Trypan Blue solution. Viable cell numbers were counted by standard cell counting chamber.
Since α-synuclein neurotoxicity is dose-dependent, it follows that accumulation of α-synuclein, caused by UCH-L1 farnesylation, should promote its toxicity. […] These cells express high endogenous levels of UCH-L1. […] The unit of y-axis is 10^5/ml. (F) Cell viability was assessed by the amount of metabolic activity using MTT assay. […]

α-synuclein [5] = experiment: α-synuclein degradation assay in transfected COS-7 cells, quantitative Western blotting; assay type: cell-based
Description: Plasmids: C220S cDNA was generated by PCR site-specific mutagenesis. For the PCR, the 5′ primer is uchforw SEQ ID NO: 1 ([…]), and 3′ primer is uchc220s SEQ ID NO:2 (CTAAGA […]). Wt UCH-L1 served as the template. The PCR fragment was inserted into pcDNA vector. For S18YC220S mutant, S18Y UCH-L1 served as the template in PCR. For the FLAG tagged UCH-L1, the 5′ primer is FLAGuchforw SEQ ID NO: 3 ([…] CGATGGAG), and the 3′ primer is uchrev SEQ ID NO: 4 ([…]). Wt UCH-L1 or C220S served as the template. PCR fragment was purified and inserted into pcDNA vector. For the FLAG tagged UCH-L3, the 5′ primer is L3HindIII SEQ ID NO: 5 (CTAAAGCTTATGGACTAC […]), the 3′ primer is L3XhoISAA SEQ ID NO: 6 ([…]). […] After 24 hours of incubation, the cells were lysed with Tris buffer (50 mM Tris, 2% SDS, 0.1% NP-40), and subjected to SDS-PAGE, followed by quantitative Western blotting.
as §2

[6] = taken in a low dose; cited from earlier work
[7] = human, in vivo; cited from earlier work

COC(=O)[C@H](CCSC)NC(=O)c1ccc(NC[C@@H](N)CS)cc1-c1ccccc1 [FTI-277]
amount of α-synuclein (α-synuclein [1]): reducing the amount of α-synuclein accumulation; also recorded: reduced the amount of α-synuclein
total amount of UCH-L1 (UCH-L1 [2]): reduced the total amount of UCH-L1
rate of turnover of UCH-L1 (UCH-L1 [2]; pulse-chase experiment not shown): increased its rate of turnover
amount of cytosolic UCH-L1 (UCH-L1 [3]): without affecting
amount of membrane bound UCH-L1 (UCH-L1 [3]): significant decrease; also recorded: decreased the amount of the membrane-associated species; also recorded: reducing the amount of membrane-associated protein
α-synuclein toxicity (loss of cells) [4]: inhibits synuclein toxicity; also recorded: rescued α-synuclein toxicity; also recorded: significantly decreased loss of cells
synuclein level (α-synuclein [5]; COS-7 cells): lowers synuclein level

C#CCN(C)[C@H](C)Cc1ccccc1 [selegiline]
delay of the need for levodopa [6]: roughly three

CC(=O)N[C@@H](CSC(=O)[C@]1([C@@H](O)C(C)C)NC(=O)[C@H](C)[C@@H]1O)C(=O)O [lactacysteine]
accumulation of α-synuclein (α-synuclein [5]; transfected COS-7 cells, 16 kDa α-synuclein normalized against actin): 100%

N[C@@H](Cc1ccc(O)c(O)c1)C(=O)O [levodopa]
patients that do not respond [7]: About 15%
